Laboratory results: patent US20240408169A1 (priority 2023, published 2024)
*1 amine or outer side, *2 acyl side, *3 side chain or, on linkers, in order; H or OH if unused. Where a SMILES comes first, the peptide text is derived from it. Bridges are numbered along the chain shown (N, C = ends). [ ]: non-standard residue; d: D form. The star is where a group is joined. X126 = CC(C)C(=O)N1[C@H]2COC[C@@H]1C=C(c1ccc(F)cc1C[C@@H](C(=O)[*:2])N(C)[*:1])C2; X205 = CC(C)C(=O)N1[C@@H]2COC[C@H]1C=C(c1ccc(F)cc1C[C@@H](C(=O)[*:2])N(C)[*:1])C2; X124 = CC(C)C(=O)N1[C@@H]2CC[C@H]1C=C(c1ccc(F)cc1C[C@@H](C(=O)[*:2])N(C)[*:1])C2; X7 = CC(C)C(=O)N1[C@H]2CC[C@@H]1C=C(c1ccc(F)cc1C[C@@H](C(=O)[*:2])N(C)[*:1])C2; NMePhe(2-(4-MorPh),5-Cl) = CN[C@@H](Cc1cc(Cl)ccc1-c1ccc(N2CCOCC2)cc1)C(=O)O; X190 = CC(=O)N1CC(Oc2ncc(Cl)cc2C[C@@H](C(=O)[*:2])N(C)[*:1])C1; NMehhhLys(Me) = CN([C@@H](CCCCCCCN(C)[*:3])C(=O)[*:2])[*:1]; X159 = CN([C@@H](Cc1cc(Cl)cnc1Oc1cnn(C)c1)C(=O)[*:2])[*:1]; X206 = CN([C@@H](Cc1cc(Cl)cnc1Cc1cnn(C)c1)C(=O)[*:2])[*:1]; X163 = CN([C@@H](Cc1cc(Cl)ccc1N1CCOCC1)C(=O)[*:2])[*:1]; NMe(hhhLys) = CN([C@@H](CCCCCCCN[*:3])C(=O)[*:2])[*:1]; Oxane2carbonyl(2R-CF3) = O=C([C@@]1(C(F)(F)F)CCCCO1)*; X152 = CN([C@@H](Cc1cc(Cl)ccc1OC1CC1)C(=O)[*:2])[*:1]; cBuCO(3,3-F2-1-CF3) = O=C(C1(C(F)(F)F)CC(F)(F)C1)*; X133 = Cc1ncc(Cl)cc1C[C@@H](C(=O)[*:2])N(C)[*:1]; Pro(trans-4-F) = O=C(O)[C@@H]1C[C@@H](F)CN1; Gly(cPr) = N[C@H](C(=O)O)C1CC1

What was measured:
CyclinE1/CDK2 = target: T1, CyclinE1/CDK2 (Homo sapiens, UniProt P24864); assay: Fluorescence Polarization (FP) competitive binding assay, Cyclin E1/Cdk2; conditions: 10 nM Cyclin E1/Cdk2, 2 nM FAM probe; average of 2-3 independent experiments; read-out: Cyclin E FP IC50;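 also: readings taken after two-hour equilibration at room temperature in HEPES buffer with NaCl, DTT, NP-40 and BSA, IC50 fitted from eight-concentration serial dilution series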
T1 construct: purchased Eurofins, discovery 14-475

CyclinA2/CDK2 = target: T2, CyclinA2/CDK2 (Homo sapiens, UniProt P20248); assay: Fluorescence Polarization (FP) competitive binding assay, Cyclin A2/Cdk2; conditions: 8 nM Cyclin A2/Cdk2, 2 nM FAM probe; average of 2-3 independent experiments; read-out: Cyclin A FP IC50;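 also: plates equilibrated two hours at room temperature before polarization reading, IC50 fitted from eight-concentration compound titration curves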
T2 construct: purchased CRELUX Protein Services

OVCAR3 cells = assay: MTT proliferation assay, OVCAR3; format: cell-based; conditions: 5 days compound exposure, 1:3 serial dilution starting at 10 μM;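 also: compound given as an 8- or 10-point series, one day after plating, with exposure covering roughly 3-4 cell doublings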
CyclinB1/CDK1 = target: T3, CyclinB1/CDK1 (Homo sapiens, UniProt P14635); assay: Fluorescence Polarization (FP) competitive binding assay, Cyclin B1/Cdk1; conditions: 10 nM Cyclin B1/Cdk1, 2 nM FAM probe; average of 2-3 independent experiments; read-out: Cyclin B FP IC50;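 also: fluorescence polarization read after equilibration at room temperature, with IC50 taken from serially diluted dose-response curves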
T3 construct: purchased Eurofins, discovery 14-450

NCI-H1048 cells = assay: MTT proliferation assay, NCI-H1048; format: cell-based; conditions: 5 days compound exposure, 1:3 serial dilution starting at 10 μM;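 also: Dose-response in 96-well plates over 8 or 10 concentration points, with exposure spanning 3-4 cell doublings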

Row | SMILES | IC50 (CyclinE1/CDK2) [µM] | IC50 (CyclinA2/CDK2) [µM] | GI50 (OVCAR3 cells) [µM] | IC50 (CyclinB1/CDK1) [µM] | GI50 (NCI-H1048 cells) [µM]
1 | CC(C)C[C@@H]1NC(=O)[C@@H](N(C)C(=O)[C@@H](NC(=O)[C@@H]2C[C@@H](F)CN2C(=O)C2(C(F)(F)F)CC(F)(F)C2)C2CC2)CCCCCCCN(C)C(=O)[C@H](Cc2cc(Cl)ccc2OC2CC2)N(C)C1=O [Example 314] ({cBuCO(3,3-F2-1-CF3)}-[Pro(trans-4-F)][Gly(cPr)][NMehhhLys(Me)]L[X152]; lactam 3-C) | 0.14 | 0.03 | 0.01 | 0.02 | 0.01
2 | CC(C)C[C@@H]1NC(=O)[C@@H](N(C)C(=O)[C@@H](NC(=O)[C@@H]2C[C@@H](F)CN2C(=O)C2(C(F)(F)F)CC(F)(F)C2)C2CC2)CCCCCCCNC(=O)[C@H](Cc2cc(F)ccc2C2=C[C@@H]3CC[C@H](C2)N3C(=O)C(C)C)N(C)C1=O [Example 315] ({cBuCO(3,3-F2-1-CF3)}-[Pro(trans-4-F)][Gly(cPr)][NMe(hhhLys)]L[X124]; lactam 3-C) | 0.42 | 0.03 | 0.02 | 0.02 | 0.02
3 | CC(C)C[C@@H]1NC(=O)[C@@H](N(C)C(=O)[C@@H](NC(=O)[C@@H]2C[C@@H](F)CN2C(=O)C2(C(F)(F)F)CC(F)(F)C2)C2CC2)CCCCCCCNC(=O)[C@H](Cc2cc(F)ccc2C2=C[C@H]3CC[C@@H](C2)N3C(=O)C(C)C)N(C)C1=O [Example 316] ({cBuCO(3,3-F2-1-CF3)}-[Pro(trans-4-F)][Gly(cPr)][NMe(hhhLys)]L[X7]; lactam 3-C) | 0.29 | 0.02 | 0.01 | 0.02 | 0.01
4 | CC(C)C[C@@H]1NC(=O)[C@@H](N(C)C(=O)[C@@H](NC(=O)[C@@H]2C[C@@H](F)CN2C(=O)C2(C(F)(F)F)CC(F)(F)C2)C2CC2)CCCCCCCN(C)C(=O)[C@H](Cc2cc(F)ccc2C2=C[C@@H]3CC[C@H](C2)N3C(=O)C(C)C)N(C)C1=O [Example 317] ({cBuCO(3,3-F2-1-CF3)}-[Pro(trans-4-F)][Gly(cPr)][NMehhhLys(Me)]L[X124]; lactam 3-C) | 0.25 | 0.03 | 0.01 | 0.02 | 0.01
5 | CC(C)C[C@@H]1NC(=O)[C@@H](N(C)C(=O)[C@@H](NC(=O)[C@@H]2C[C@@H](F)CN2C(=O)C2(C(F)(F)F)CC(F)(F)C2)C2CC2)CCCCCCCN(C)C(=O)[C@H](Cc2cc(Cl)ccc2N2CCOCC2)N(C)C1=O [Example 319] ({cBuCO(3,3-F2-1-CF3)}-[Pro(trans-4-F)][Gly(cPr)][NMehhhLys(Me)]L[X163]; lactam 3-C) | 1.35 | 0.03 | 0.02 | 0.02 | 0.01
6 | Cc1ncc(Cl)cc1C[C@H]1C(=O)N(C)CCCCCCC[C@H](N(C)C(=O)[C@@H](NC(=O)[C@@H]2C[C@@H](F)CN2C(=O)C2(C(F)(F)F)CC(F)(F)C2)C2CC2)C(=O)N[C@@H](CC(C)C)C(=O)N1C [Example 322] ({cBuCO(3,3-F2-1-CF3)}-[Pro(trans-4-F)][Gly(cPr)][NMehhhLys(Me)]L[X133]; lactam 3-C) | 0.53 | 0.08 | 0.06 | 0.02 | 0.03
7 | CC(C)C[C@@H]1NC(=O)[C@@H](N(C)C(=O)[C@@H](NC(=O)[C@@H]2C[C@@H](F)CN2C(=O)C2(C(F)(F)F)CC(F)(F)C2)C2CC2)CCCCCCCN(C)C(=O)[C@H](Cc2cc(Cl)cnc2Oc2cnn(C)c2)N(C)C1=O [Example 323] ({cBuCO(3,3-F2-1-CF3)}-[Pro(trans-4-F)][Gly(cPr)][NMehhhLys(Me)]L[X159]; lactam 3-C) | 0.24 | 0.03 | 0.01 | 0.02 | 0.01
8 | CC(=O)N1CC(Oc2ncc(Cl)cc2C[C@H]2C(=O)N(C)CCCCCCC[C@H](N(C)C(=O)[C@@H](NC(=O)[C@@H]3C[C@@H](F)CN3C(=O)C3(C(F)(F)F)CC(F)(F)C3)C3CC3)C(=O)N[C@@H](CC(C)C)C(=O)N2C)C1 [Example 324] ({cBuCO(3,3-F2-1-CF3)}-[Pro(trans-4-F)][Gly(cPr)][NMehhhLys(Me)]L[X190]; lactam 3-C) | 0.52 | 0.06 | 0.08 | 0.02 | 0.04
9 | CC(C)C[C@@H]1NC(=O)[C@@H](N(C)C(=O)[C@@H](NC(=O)[C@@H]2C[C@@H](F)CN2C(=O)C2(C(F)(F)F)CC(F)(F)C2)C2CC2)CCCCCCCNC(=O)[C@H](Cc2cc(F)ccc2C2=C[C@@H]3COC[C@H](C2)N3C(=O)C(C)C)N(C)C1=O [Example 325] ({cBuCO(3,3-F2-1-CF3)}-[Pro(trans-4-F)][Gly(cPr)][NMe(hhhLys)]L[X205]; lactam 3-C) | 0.3 | 0.02 | 0.01 | 0.02 | 0.01
10 | CC(C)C[C@@H]1NC(=O)[C@@H](N(C)C(=O)[C@@H](NC(=O)[C@@H]2C[C@@H](F)CN2C(=O)C2(C(F)(F)F)CC(F)(F)C2)C2CC2)CCCCCCCNC(=O)[C@H](Cc2cc(F)ccc2C2=C[C@H]3COC[C@@H](C2)N3C(=O)C(C)C)N(C)C1=O [Example 326] ({cBuCO(3,3-F2-1-CF3)}-[Pro(trans-4-F)][Gly(cPr)][NMe(hhhLys)]L[X126]; lactam 3-C) | 0.15 | 0.02 | 0.01 | 0.02 | 0.01
11 | CC(C)C[C@@H]1NC(=O)[C@@H](N(C)C(=O)[C@@H](NC(=O)[C@@H]2C[C@@H](F)CN2C(=O)C2(C(F)(F)F)CC(F)(F)C2)C2CC2)CCCCCCCN(C)C(=O)[C@H](Cc2cc(F)ccc2C2=C[C@H]3COC[C@@H](C2)N3C(=O)C(C)C)N(C)C1=O [Example 328] ({cBuCO(3,3-F2-1-CF3)}-[Pro(trans-4-F)][Gly(cPr)][NMehhhLys(Me)]L[X126]; lactam 3-C) | 0.21 | 0.02 | 0.01 | 0.02 | 0.01
12 | CC(C)C[C@@H]1NC(=O)[C@@H](N(C)C(=O)[C@@H](NC(=O)[C@@H]2C[C@@H](F)CN2C(=O)C2(C(F)(F)F)CC(F)(F)C2)C2CC2)CCCCCCCN(C)C(=O)[C@H](Cc2cc(F)ccc2C2=C[C@@H]3COC[C@H](C2)N3C(=O)C(C)C)N(C)C1=O [Example 329] ({cBuCO(3,3-F2-1-CF3)}-[Pro(trans-4-F)][Gly(cPr)][NMehhhLys(Me)]L[X205]; lactam 3-C) | 0.25 | 0.02 | 0.01 | 0.02 | 0.01
13 | Cc1ncc(Cl)cc1C[C@H]1C(=O)NCCCCCCC[C@H](N(C)C(=O)[C@@H](NC(=O)[C@@H]2C[C@@H](F)CN2C(=O)C2(C(F)(F)F)CC(F)(F)C2)C2CC2)C(=O)N[C@@H](CC(C)C)C(=O)N1C [Example 331, (2S,4R)—N—((S)-2-(((3S,6S,9S)-3-((5-chloro-2-methylpyridin-3-yl)methyl)-6-isobutyl-4-methyl-2,5,8-trioxo-1,4,7-triazacyclohexadecan-9-yl)(methyl)amino)-1-cyclopropyl-2-oxoethyl)-1-(3,3-difluoro-1-(trifluoromethyl)cyclobutane-1-carbonyl)-4-fluoropyrrolidine-2-carboxamide] ({cBuCO(3,3-F2-1-CF3)}-[Pro(trans-4-F)][Gly(cPr)][NMe(hhhLys)]L[X133]; lactam 3-C) | 1.14 | 0.17 | 0.05 | 0.02 | 0.06
14 | CC(C)C[C@@H]1NC(=O)[C@@H](N(C)C(=O)[C@@H](NC(=O)[C@@H]2C[C@@H](F)CN2C(=O)[C@@]2(C(F)(F)F)CCCCO2)C2CC2)CCCCCCCN(C)C(=O)[C@H](Cc2cc(Cl)cnc2Cc2cnn(C)c2)N(C)C1=O [Example 332] ({Oxane2carbonyl(2R-CF3)}-[Pro(trans-4-F)][Gly(cPr)][NMehhhLys(Me)]L[X206]; lactam 3-C) | 0.1 | 0.02 | 0.01 | 0.02 | 0.01
15 | CC(C)C[C@@H]1NC(=O)[C@@H](N(C)C(=O)[C@@H](NC(=O)[C@@H]2C[C@@H](F)CN2C(=O)C2(C(F)(F)F)CC(F)(F)C2)C2CC2)CCCCCCCNC(=O)[C@H](Cc2cc(Cl)ccc2-c2ccc(N3CCOCC3)cc2)N(C)C1=O [Example 333] ({cBuCO(3,3-F2-1-CF3)}-[Pro(trans-4-F)][Gly(cPr)][NMe(hhhLys)]L[NMePhe(2-(4-MorPh),5-Cl)]; lactam 3-C) | 1.15 | 0.02 | 0.01 | 0.02 | 0.01
